Laboratory results from patent US10525044B2, “Treatment for chemotherapy-induced peripheral neuropathy” (priority 2013, dated 2020).
Several values for one entry are separate records, joined by “and”; a condition that tells them apart may be missing. Equal values may be shown once.

What was measured:
[1] = tested on: mixed cortical and striatal neurons; experiment: LDH assay (cell membrane integrity) in neuronal cell culture; assay type: cell-based
Description: Neuronal Cell Culture. Mixed cortical and striatal neurons fromembryonic day 17 male Sprague-Dawley rats (tissue obtained from NIH) were seeded into poly-D-lysine coated 96-well plates at density of 50,000 cells/well and initially cultured at 37° C., 5% CO2, in neurobasal medium (NB) with B27 supplement (Invitrogen) containing full strength of AOs to obtain highly enriched (95%) neurons. Since AOs, including vitamin E, vitamin E acetate, superoxide dismutase (SOD), catalase (CAT), and GSH, are additives to culture medium, reduction of AO concentration in culture medium provides an approach to determine the level of OS involvement in a neurotoxic process. In our study, the culture medium was replaced at a 50% ratio with NB plus B27 minus AOs twice at days 7 and 9 to set AO concentrations as 50% and 25%, respectively. At 16 days in vitro (d.i.v.), a fraction of the culture medium was harvested for lactate dehydrogenase (LDH) assay, and then AO concentration was reduced to 12.5% and cultured for a further 5 hours prior to ending the experiment.
(§1) Cell Insults and Treatments. Determination of concentration for each anticancer drug in our experiments was based on its reported concentration in human cerebral spinal fluid (CSF) in chemotherapy, literature report of its neurotoxicity in culture, and our preliminary in vitro experimental data. At 13 d.i.v., the neuronal cell cultures were insulted with 100 μM of MTX (M9929, Sigma), 25 μM of 5-FU (F6627, Sigma), or 3.5 μM of CDDP (sc-200896, Santa Cruz) for 3 days in absence or presence of PAN 811.Cl.H2O. For ROS examination, the neurons were insulted with both 100 μM of MTX and 25 μM of 5-FU by 15 d.i.v. PAN-811.Cl.H2O was added to cultures to final concentrations of 1.25, 2.5, 5, and 10 μM at the same time as addition of the anticancer drugs. For cancer cell lines, the cells were insulted by the second day of cell seeding with the same concentration of MTX, 5-FU, or CDDP as used in neuronal culture in the absence or presence of 10 μM PAN-811.Cl.H2O for another 3 days.
(§2) Quantitative Assays and Morphological Assessment. Cell membrane integrity and mitochondrial function of either neurons or cancer cells were measured with LDH and 3-(4,5-dimethylthiazol-2-yl)-5-(3-carboxymethoxyphenyl)-2-(4-sulfophenyl)-2H-tetrazolium [MTS] analyses, respectively. The latter has been used to quantify cell survival. For the LDH assay, a mixture of a 35 μL aliquot of culture supernatant and 17.5 μL of Mixed Substrate, Enzyme and Dye Solutions (Sigma) was incubated at room temperature (RT) for 30 minutes. For the MTS assay, 10 μL of MTS reagent (Promega) was added to a culture well containing neurons in 50 μL of medium. The preparations were incubated at 37° C. for 2 hours. The preparations for both assays were then spectrophotometrically measured at 490 nm using a 96-well plate reader (Mode 550, Bio-Rad). Neuronal cell death was morphologically determined based on the integrity of the cell soma and continuity of neuronal processes. The change in number of cancer cells was judged directly by cell density. Cells were photographed under an inverted phase contrast microscope (IX 70, Olympus) using 10× or 20× objective.
(§3) Data Analysis. Data were generated from 4-6 replicate wells, expressed as mean±standard deviation (SD), and statistically evaluated at a significance level of 1% with one factor ANOVA or Student's t-test by using software VASSARSTATS (http://vassarstats.net/) followed by the Tukey HSD test. Figure symbols are as follows: #, P<0.05, and ##, P<0.01, compared with control; *, P<0.05, and **, P<0.01, compared with the insulted group; §§, P<0.01, compared with PAN-811 treated group by Student's t-test.

[2] = tested on: mouse liver cancer cell line BNLT3; experiment: MTS assay in BNLT3 cancer cells; assay type: cell-based
Description: (§4) Cancer Cell Culture. The mouse liver cancer cell line BNLT3 (gift of Dr. Jack Wands, Brown University) and the human lung cancer cell line H460 (ATCC) were seeded into 96-well plates at a density of 4,000 cells/well and cultured at 37° C., 5% CO2, in DMEM (11965, Gibco) supplemented with 10% fetal bovine serum, 20 mM HEPES, 1 mM sodium pyruvate, and […] gentamycin (all reagents came from Gibco).
as §1, §2, §3

[3] = tested on: human lung cancer cell line H460; experiment: MTS assay in H460 cancer cells; assay type: cell-based
Description: as §4, §1, §2, §3

[4] = tested on: human lung cancer cell line H460; experiment: LDH assay (membrane integrity) in H460 cancer cells; assay type: cell-based
Description: as §4
as §1, with “[…] […]” for “At 13 d.i.v., the neuronal cell cultures were insulted with 100 μM of MTX (M9929, Sigma), 25 μM of 5-FU (F6627, Sigma), or 3.5 μM of CDDP (sc-200896, Santa Cruz) for 3 days in absence or presence of PAN 811.Cl.H2O. For ROS examination, the neurons were insulted with both 100 μM of MTX and 25 μM of 5-FU by 15 d.i.v.”
as §2, §3

[5] = tested on: ischemic neurodegeneration; settings: 0.45 μM; cited from earlier work
rat, arterial occlusion = settings: i.c.v., 50 μg per rat at 1 h after arterial occlusion; cited from earlier work
[6] = tested on: staurosporine-induced apoptosis; settings: cited from earlier work
[7] = tested on: hydrogen peroxide-induced LDH release; settings: cited from earlier work
[8] = tested on: human Alzheimer's disease-derived and age-matched olfactory neuroepithelial cells; settings: via suppression of intracellular reactive oxygen species; cited from earlier work
[9] = 500 μM diphenylpicrylhydrazyl, cell free; cited from earlier work
[10] = 3.5 μM CDDP and 10 μM PAN-811, 3 days
[11] = 25 μM 5-FU and 10 μM PAN-811, 3 days
[12] = 100 μM MTX and 10 μM PAN-811, 3 days
[13] = each agent alone, 3 days: MTX 100 μM, 5-FU 25 μM, CDDP 3.5 μM, PAN-811 10 μM

NC(=S)N/N=C/c1ncccc1N [PAN-811, 3-aminopyridine-2-carboxaldehyde thiosemicarbazone]
LDH release in CDDP-insulted cultures ([1]; 5 μM PAN-811, 3.5 μM CDDP): fully blocked
LDH release in 5-FU-insulted cultures ([1]; 5 μM PAN-811, 25 μM 5-FU): fully blocked
LDH release in MTX-insulted cultures ([1]; 5 μM PAN-811, 100 μM MTX): fully blocked
MTX/5-FU-elicited LDH increase ([1]; 10 μM PAN-811, 100 μM MTX and 25 μM 5-FU): fully inhibited
suppression of MTX/5-FU-elicited LDH release, concentration dependence ([1]; PAN-811 1.25 to 10 μM, 100 μM MTX and 25 μM 5-FU): concentration-dependent suppression
LDH increase caused by each anticancer drug, dose dependence ([1]; neurons, MTX 100 μM, 5-FU 25 μM or CDDP 3.5 μM): dose-dependently suppressed
MTS reading, cotreatment vs PAN-811 alone [2, 10]: did not introduce an extra reduction in MTS reading
inhibition of the effect of MTX, 5-FU, or CDDP on BNLT3 cells ([2]; 10 μM PAN-811): did not show any inhibition
synergistic effect with each tested anticancer drug on BNLT3 cell growth ([2]; 10 μM PAN-811): neither did it demonstrate any synergistic effect
MTS reading, cotreatment vs 5-FU alone [2, 11]: caused a further reduction in MTS reading
MTS reading, cotreatment vs MTX alone [2, 12]: did not cause any further reduction in MTS reading
interaction with CDDP on suppression of H460 growth ([3]; 3.5 μM CDDP and 10 μM PAN-811): synergistic effect
reduction of MTS reading, cotreatment with CDDP [3, 10]: 85%
inhibition of the effect of MTX, 5-FU, or CDDP on cell growth of H460 cells ([3]; 10 μM PAN-811): did not show any inhibition
interaction with 5-FU on suppression of H460 growth ([3]; 25 μM 5-FU and 10 μM PAN-811): synergistic effect
reduction of MTS reading, cotreatment with 5-FU [3, 11]: 84%
MTS reading, cotreatment with MTX [3, 12]: about the same as 10 μM PAN-811 alone
reduction of MTS reading [3, 13]: 76% and 74% and 75%
increase in LDH reading, cotreatment with CDDP [4, 10]: 57%
effect on MTX-, 5-FU-, or CDDP-induced membrane leakage ([4]; 10 μM PAN-811): inhibitory effect
reduction of LDH reading compared with MTX group, cotreatment [4, 12]: 70%
increase in LDH reading in culture supernatant [4, 13]: 31% and 30%
ischemic neurodegeneration [5]: fully blocked
reduction of infarct volume (rat, arterial occlusion): 59%
staurosporine-induced apoptosis [6]: prevents
suppression of hydrogen peroxide-induced LDH release ([7]; 1 μM, vs untreated/H2O2-insulted group): 78%
suppression of hydrogen peroxide-induced LDH release, maximal protection ([7]; 10 μM, vs untreated and H2O2-insulted group): 90%
EC50 ([7]; read-out: EC50, protection against hydrogen peroxide-induced LDH release): ~550 nM
oxidative stress-induced cell death [8]: inhibited
reduction of stable free radical diphenylpicrylhydrazyl [9]: 70%
